From patent US7485324B2, “Use of exogenous gaseous nitric oxide in the treatment and disinfection of biofilms” (Pulmonox Technologies Corporation, priority 2003, dated 2009)

Experiments:
B. cenocepacia C8963 = assay: Biofilm formation in 96-well microtiter dish assay (crystal violet staining, A595); type: cell-based, Burkholderia cenocepacia; settings: for C8963 biofilm growth in the presence of gNO compared with absence of gNO: 200 ppm gNO; for Average A595 (C8 + NO), biofilm formation: experiment 2
Method: (§1) Objective: To determine if exposure to gaseous nitric oxide (gNO) affects the ability of B. cenocepacia C8963 to form a biofilm in a 96-well microtiter dish assay.
(§2) Methods: B. cenocepacia C8963, a non-mucoid isolate from a cystic fibrosis (CF) patient, and C9343, a mucoid isolate from the same patient, were spotted on Luria Broth agar and grown at 37° C. overnight. Luria broth containing 0.5% (w/v) casamino acids was dispensed into 96-well polypropylene microtiter dishes (100 μl per well) and the wells inoculated with the C8963 or C9343 using a pin-inoculation device. Blank wells were not inoculated. Dishes were incubated in a humidified, closed plastic container for 24 hours at 37° C. (experiment 1) or in the outer chamber of the matrix incubator (a humidified incubator with controlled air flow) for 27 hours at 37° C. (experiment 2). At 24 hours (experiment 1) or 27 hours (experiment 2), one dish was processed for staining of the bacterial biofilms. The remaining dishes were incubated in the inner treatment arms of the matrix incubator at 37° C. in the presence or absence of 200 ppm gNO. One dish for each of the conditions (+gNO or −gNO) was processed for biofilm staining at 32, 36, and 48 hours.
(§3) To stain biofilm growth, planktonic bacteria were removed from the microtitre dishes by discarding media and cells. Biofilms were washed to remove remaining non-adherent bacteria in two successive tap water washes. Water was shaken from the wells and the dishes inverted and tapped vigorously on a stack of paper towels to remove as much water as possible. Adherent growth was stained by adding 125 μlof a 0.1% (w/v) solution of crystal violet to each well and incubating at room temperature for 15 minutes. Crystal violet was discarded as for the previous washes and excess stain was removed in three successive tap-water washes. Excess water was removed by vigorous tapping as before and the stained dishes allowed to air dry.
(§4) To quantitate biofilm formation, 200 μl of 95% ethanol was added to each well, incubated at room temperature for 15 minutes, and 125 μl from each well was removed to a clean flat-bottomed polystyrene microtitre dish. The absorbance at 595 nm was read on a Bio-Rad Model 3550 Microplate Reader. The average reading from “Blank” (uninoculated) wells containing only media was subtracted from each “Test” well. The [Test-Blank] averages and standard errors of the mean (SEM) were calculated for each condition and time.

B. cenocepacia C9343 = assay: as above; type: cell-based, Burkholderia cenocepacia; settings: 200 ppm gNO; experiment 1
Method: as §1, §2, §3, §4

Q: Which results are given for [N]=O [gNO, nitric oxide]?
A: Effect on biofilm formation of C8963 (B. cenocepacia C8963; 200 ppm final concentration of gNO): inhibited biofilm formation; C8963 biofilm growth in the presence of gNO compared with absence of gNO (B. cenocepacia C8963; at 32 hours, experiments 1 and 2): greater than in the absence of gNO; C8963 biofilm growth in the presence of gNO compared with absence of gNO (B. cenocepacia C8963; by 36 hours, experiments 1 and 2): significantly lower than in the absence of gNO; C8963 biofilm growth in the presence of gNO compared with absence of gNO (B. cenocepacia C8963; remaining time points up to 48 hours, both experiments): consistently lower; Average A595 (C8 + NO), biofilm formation (B. cenocepacia C8963; time 27 h, after 27 hours in air, before exposure to 200 ppm gNO): 0.076; Average A595 (C8 + NO), biofilm formation (B. cenocepacia C8963; time 32 h, 200 ppm gNO from 27 h, 37° C.): 0.282; Average A595 (C8 + NO), biofilm formation (B. cenocepacia C8963; time 36 h, 200 ppm gNO from 27 h, 37° C.): 0.252; Average A595 (C8 + NO), biofilm formation (B. cenocepacia C8963; time 48 h, 200 ppm gNO from 27 h, 37° C.): 0.334; Effect on biofilm growth of C8963 (B. cenocepacia C8963; low initial concentrations of gNO): enhanced biofilm growth; Induction of biofilm formation by mucoid C9343 (B. cenocepacia C9343): did not induce biofilm formation
